Measurements published in patent US6894046B2, “IL-5 inhibiting 6-azauracil derivatives” (Janssen Pharmaceutica N.V., priority 1998, dated 2005).
Where a name gives a salt, the structure may show the parent alone.

Test system: IL-5 production in human blood
Assay: In vitro inhibition of IL-5 production in human blood (phytohemagglutinin-stimulated whole blood, ELISA)
Type: cell-based
Settings: test dose 1×10^−6 M, phytohemagglutinin 2 μg/ml, 48 hours; for inhibition at 1 µM: read-out: % inh. (percentage inhibition of IL-5 production)
Experimental: EXAMPLE C.1: IN VITRO INHIBITION OF IL-5 PRODUCTION IN HUMAN BLOOD
Peripheral blood from healthy male donors was drawn into heparinized syringes (12.5 U heparin/ml). Blood samples were three-fold diluted in RMPI 1640 medium (Life Technologies, Belgium) supplemented with 2 mM L-glutamine, 100 U/ml penicillin and 100 μg/ml streptomycin, and 300 μl fractions were distributed in 24-well multidisc plates. Blood samples were preincubated (60 minutes at 37° C.) in a humidified 6% CO2-atmosphere with 100 μl of drug solvent (final concentration 0.02% dimethylsulfoxide in RPMI 1640) or with 100 μl of an appropriate dose of test compound before being stimulated by the addition of 100 μl of phytohemagglutinin HA17 (Murex, UK) at a final concentration of 2 μg/ml. After 48 hours, cell-free supernatant fluids were collected by centrifugation and stored at −70° C. until tested for the presence of IL-5.
IL-5 measurements were conducted as described in Van Wauwe et al. (1996, Inflamm Res, 45, 357-363) on page 358 using ELISA.
Table 6 lists the percentage inhibition of IL-5 production (column “% inh”) at a test dose of 1×10^−6 M, or in case the percentage inhibition is marked with an “*” 1×10^−5 M, for the compounds of the present invention.

With `Cc1sc(C(C)(C)c2c(Cl)cc(-n3ncc(=O)[nH]c3=O)cc2Cl)nc1-c1ccccc1F` [Compound 15] the “% inh. (percentage inhibition of IL-5 production)” value was 81%.

With `Cc1ccc(-c2nc(C(C)(C)c3c(Cl)cc(-n4ncc(=O)[nH]c4=O)cc3Cl)sc2Br)s1` [Compound 111] the “% inh. (percentage inhibition of IL-5 production)” value was 88%.

`CC(C)(c1noc(-c2ccccc2C(F)(F)F)n1)c1c(Cl)cc(-n2ncc(=O)[nH]c2=O)cc1Cl` [Compound 153] was tested, and the “% inh. (percentage inhibition of IL-5 production)” value was 77%.

`CC(C)(c1nc(-c2ccsc2)cs1)c1c(Cl)cc(-n2ncc(=O)[nH]c2=O)cc1Cl` [Compound 72, 2-[3,5-dichloro-4-[1-methyl-1-[4-(3-thienyl)-2-thiazolyl]ethyl]phenyl]-1,2,4-triazine-3,5(2H,4H)-dione] was tested, and the inhibition at 1 µM was 84%.

`CN1CCN(Cc2ccccc2-c2nc(C(C)(C)c3c(Cl)cc(-n4ncc(=O)[nH]c4=O)cc3Cl)no2)CC1` [Compound 94, 2-[3,5-dichloro-4-[1-methyl-1-[5-[2-[(4-methyl-1-piperazinyl)methyl]phenyl]-1,2,4-oxadiazol-3-yl]ethyl]phenyl]-1,2,4-triazine-3,5(2H,4H)-dione trihydrochloride] was tested, and the inhibition at 1 µM was 34%.

`CC(C)(c1nc(-c2cccs2)c(CC(=O)O)s1)c1c(Cl)cc(-n2ncc(=O)[nH]c2=O)cc1Cl` [Compound 121] was tested, and the “% inh. (percentage inhibition of IL-5 production)” value was −3%.

For `CC(C)(c1noc(-c2ccncc2)n1)c1c(Cl)cc(-n2ncc(=O)[nH]c2=O)cc1Cl` [Compound 97, 2-[3,5-dichloro-4-[1-methyl-1-[5-(4-pyridinyl)-1,2,4-oxadiazol-3-yl]ethyl]phenyl]-1,2,4-triazine-3,5(2H,4H)-dione], the inhibition at 1 µM was 90%.

`CC(C)(c1noc(-c2cccnc2)n1)c1c(Cl)cc(-n2ncc(=O)[nH]c2=O)cc1Cl` [Compound 124, 2-[3,5-dichloro-4-[1-methyl-1-[5-(3-pyridinyl)-1,2,4-oxadiazol-3-yl]ethyl]phenyl]-1,2,4-triazine-3,5(2H,4H)-dione] gave an inhibition at 1 µM of 86%.

`CC(C)(c1nc(-c2ccccc2)c(-c2ccccc2)s1)c1c(Cl)cc(-n2ncc(=O)[nH]c2=O)cc1Cl` [Compound 23, 2-[3,5-dichloro-4-[1-(4,5-diphenyl-2-thiazolyl)-1-methylethyl]phenyl]-1,2,4-triazine-3,5(2H,4H)-dione] was tested, and the inhibition at 1 µM was 91%.

`CC(C)(c1nc(-c2ccc(N(S(C)(=O)=O)S(C)(=O)=O)s2)cs1)c1c(Cl)cc(-n2ncc(=O)[nH]c2=O)cc1Cl` [Compound 81, N-[5-[2-[1-[2,6-dichloro-4-(4,5-dihydro-3,5-dioxo-1,2,4-triazine-2(3H)-yl)phenyl]-1-methylethyl]-4-thiazolyl]-2-thienyl]-N-(methylsulfonyl)methanesulfonamide] was tested, and the inhibition at 1 µM was 34%.

`CC(C)(c1nc(-c2ccc(Cl)s2)cs1)c1c(Cl)cc(-n2ncc(=O)[nH]c2=O)cc1Cl` [Compound 73] was tested, and the “% inh. (percentage inhibition of IL-5 production)” value was 84%.

With `Cc1sc(C(C)(C)c2c(Cl)cc(-n3ncc(=O)[nH]c3=O)cc2Cl)nc1-c1ccccc1` [Compound 10] the “% inh. (percentage inhibition of IL-5 production)” value was 85%.

Compound `COCCN1CCN(Cc2sc(C(C)(C)c3c(Cl)cc(-n4ncc(=O)[nH]c4=O)cc3Cl)nc2-c2ccccc2)CC1` [Compound 42, 2-[3,5-dichloro-4-[1-[5-[[4-(2-methoxyethyl)-1-piperazinyl]methyl]-4-phenyl-2-thiazolyl]-1-methylethyl]phenyl]-1,2,4-triazine-3,5(2H,4H)-dione] has an inhibition at 1 µM of 26%.

In the case of `CC(C)(c1nc(-c2ccccc2Cl)c(-c2cccc(C(=O)O)c2)s1)c1c(Cl)cc(-n2ncc(=O)[nH]c2=O)cc1Cl` [Compound 56], the “% inh. (percentage inhibition of IL-5 production)” value is reported as −4%.

In the case of `CC(C)(c1nc(-c2ccccc2)c(N2CCOCC2)s1)c1c(Cl)cc(-n2ncc(=O)[nH]c2=O)cc1Cl` [Compound 14], the “% inh. (percentage inhibition of IL-5 production)” value is reported as 78%.

`COC(=O)c1ccc(-c2nc(C(C)(C)c3c(Cl)cc(-n4ncc(=O)[nH]c4=O)cc3Cl)no2)nc1` [Compound 146] was tested, and the “% inh. (percentage inhibition of IL-5 production)” value was 4%.

With `CC(C)(NC(=O)c1cccnc1)c1c(Cl)cc(-n2ncc(=O)[nH]c2=O)cc1Cl` [Compound 101] the “% inh. (percentage inhibition of IL-5 production)” value was 19%.

With `CC(C)(c1noc(-c2ccccc2CC(=O)O)n1)c1c(Cl)cc(-n2ncc(=O)[nH]c2=O)cc1Cl` [Compound 158] the “% inh. (percentage inhibition of IL-5 production)” value was 3%.

For `CC(C)(c1nc(-c2ccccc2)c(CC(=O)N2CCOCC2)s1)c1c(Cl)cc(-n2ncc(=O)[nH]c2=O)cc1Cl` [Compound 20], the “% inh. (percentage inhibition of IL-5 production)” value was 80%.

In the case of `CC(C)(c1noc(-c2ccccn2)n1)c1c(Cl)cc(-n2ncc(=O)[nH]c2=O)cc1Cl` [Compound 98], the “% inh. (percentage inhibition of IL-5 production)” value is reported as 58%.

In the case of `CC(C)(c1nc(-c2ccccc2)c(-c2cccc([N+](=O)[O-])c2)s1)c1c(Cl)cc(-n2ncc(=O)[nH]c2=O)cc1Cl` [Compound 49], the “% inh. (percentage inhibition of IL-5 production)” value is reported as 95%.

For `COCc1cccc(-c2nc(C(C)(C)c3c(Cl)cc(-n4ncc(=O)[nH]c4=O)cc3Cl)sc2C)c1` [Compound 44], the “% inh. (percentage inhibition of IL-5 production)” value was 81%.

For `CC(C)(c1cc(Cl)c(-n2ncc(=O)[nH]c2=O)c(Cl)c1)c1nc(-c2ccccc2Cl)c(-c2cccc(C(N)=O)c2)s1` [Compound 62, 3-[2-[1-[3,5-dichloro-4-(4,5-dihydro-3,5-dioxo-1,2,4-triazin-2(3H)-yl)phenyl]-1-methylethyl]-4-(2-chlorophenyl)-5-thiazolyl]benzamide], the inhibition at 1 µM was 53%.

With `CCc1sc(C(C)(C)c2c(Cl)cc(-n3ncc(=O)[nH]c3=O)cc2Cl)nc1-c1ccc(-c2ccccc2)cc1` [Compound 48] the “% inh. (percentage inhibition of IL-5 production)” value was 58%.

In the case of `CC(C)(c1noc(-c2cccs2)n1)c1c(Cl)cc(-n2ncc(=O)[nH]c2=O)cc1Cl` [Compound 92], the “% inh. (percentage inhibition of IL-5 production)” value is reported as 80%.

`CC(C)(c1nc(-c2ccc(-c3cccs3)s2)cs1)c1c(Cl)cc(-n2ncc(=O)[nH]c2=O)cc1Cl` [Compound 84] was tested, and the “% inh. (percentage inhibition of IL-5 production)” value was 14%.

In the case of `Cc1nc(C(C)(C)c2c(Cl)cc(-n3ncc(=O)[nH]c3=O)cc2Cl)sc1-c1ccccc1` [Compound 31, 2-[3,5-dichloro-4-[1-methyl-1-(4-methyl-5-phenyl-2-thiazolyl)ethyl]phenyl]-1,2,4-triazine-3,5(2H,4H)-dione], the inhibition at 1 µM is reported as 87%.

`CC(C)(c1nc(-c2ccccc2Cl)c(-c2ccccc2)s1)c1c(Cl)cc(-n2ncc(=O)[nH]c2=O)cc1Cl` [Compound 32] was tested, and the “% inh. (percentage inhibition of IL-5 production)” value was 91%.

In the case of `CN1CCN(Cc2ccsc2-c2csc(C(C)(C)c3c(Cl)cc(-n4ncc(=O)[nH]c4=O)cc3Cl)n2)CC1.O` [Compound 113], the “% inh. (percentage inhibition of IL-5 production)” value is reported as 28%.

`CN1CCN(C(=O)c2cccc(-c3sc(C(C)(C)c4c(Cl)cc(-n5ncc(=O)[nH]c5=O)cc4Cl)nc3-c3ccccc3Cl)c2)CC1` [Compound 61, 1-[3-[2-[1-[2,6-dichloro-4-(4,5-dihydro-3,5-dioxo-1,2,4-triazin-2(3H)-yl)phenyl]-1-methylethyl]-4-(2-chlorophenyl)-5-thiazolyl]benzoyl]-4-methylpiperazine] gave an inhibition at 1 µM of 29%.

`CN(C)Cc1sc(C(C)(C)c2c(Cl)cc(-n3ncc(=O)[nH]c3=O)cc2Cl)nc1-c1ccccc1.Cl` [Compound 2] was tested, and the “% inh. (percentage inhibition of IL-5 production)” value was 92%.

`Cc1ccccc1-c1csc(C(C)(C)c2c(Cl)cc(-n3ncc(=O)[nH]c3=O)cc2Cl)n1` [Compound 40] was tested, and the “% inh. (percentage inhibition of IL-5 production)” value was 89%.

For `CC(C)(c1noc(C2CCNCC2)n1)c1c(Cl)cc(-n2ncc(=O)[nH]c2=O)cc1Cl.Cl` [Compound 152], the “% inh. (percentage inhibition of IL-5 production)” value was 21%.
